Experiments:
sebaceous gland = assay: Oral hamster sebaceous gland reduction assay; type: in vivo, male Syrian golden hamsters; parameters: key to the marks not given beside the values; conditions: 32 mg/kg
Procedure: An oral assay for hamster sebaceous gland reduction is conducted.
Hamsters are dosed orally with the test compound and vehicle alone. The reduction in sebaceous gland size is estimated microscopically in relation to the control. The assay is unique and proprietary to Ortho Pharmaceutical Corp. and is based upon the work of Plewig et al. (1977) and Gomex et al. (1980). Plewig, et al., Hamster Ear Model for Sebaceous Glands, J. Invest. Derm. 68: 171-176 (1977). Gomez, et al., Effect of 13-cis-Retinoic Acid on the Hamster Flank Organ, J. Invest. Derm. 74: 392-397 (1980).
For oral (p.o.) studies, male Syrian golden hamsters are […] at 5 ml/kg, once daily, five consecutive days/week for two or three weeks. Modified but similar dosing schedules could be used. Control hamsters are dosed with vehicle alone at 5 ml/kg. Following final treatment (up to 72 hours), the hamsters are sacrificed in a CO2 atmosphere. Samples of each test site are placed into 10% buffered formalin and histologically prepared. Serial sections of each sample are stained (H&E) and examined microscopically.
The reduction in sebaceous gland size is estimated microscopically in relation to the control treated sites. To quantify sebaceous gland size, cross-sectional areas are measured with an image analyzer system.

[1] = test system: ornithine decarboxylase (ODC); assay: ODC/Retinoid Bioassay: inhibition of TPA induced ornithine decarboxylase activity; type: in vivo, CD-1 mice; conditions: topical, TPA induced
Procedure: The ODC/Retinoid Bioassay is based on the method of Verma, A. K. and Boutwell, R. K., Cancer Res. (1977) 37:2196-2201. The ODC assay measures a compounds effect on the prevention of the induction of ODC, namely the effect of the retinoid compound on the inhibition of the tumor promoter 12-O-tetradecanoylphorbol-13-acetate (TPA) induced ODC activity. The assay is carried out using CD-1 mice (aged 7 to 9 weeks). The dorsal hair of the mice is shaved 3-4 days before testing. Four mice are used for each point. The test retinoids, at one of two dose levels (1.7 and 17 nmoles) dissolved in 0.2 ml of acetone is applied topically to the back of each shaved mouse. A single dose of TPA ([…]) is applied to the back of each treated mouse 30 minutes later. Control groups are treated with either acetone alone, TPA, or tretinoin. The mice are sacrificed by cervical dislocation 5 hours after TPA treatment.
The dorsal skin encompassing the shaved and TPA exposed area is excised and placed in a 100 ml beaker containing distilled water maintained at 51° C.-57° C. The skin is soaked for 50-70 seconds at this temperature with intermittent stirring. The skin is placed epidermis side up in a chilled (0°-5° C.) stainless steel plate and the epidermal layer is scraped off with a razor blade. The epidermal layers from the 4 mice are pooled and placed in a homogenization tube with 2 ml of ODA buffer ([…] with […] pyridoxal phosphate, […] ethylenediaminetetraacetic acid (EDTA), 1 mM dithiothreitol, pH 7.5). The pooled epidermal layers are homogenized for 15 seconds at 0° C. using a Polytron homogenizer at a setting of 7.5. The homogenate is centrifuged at 30,000×g and the supernatant fraction is pipetted into a storage tube and frozen for about 72 hours.
The homogenate is assayed for ODC activity as described by Verma and Boutwell to measure the release of ^14 CO2 from labeled DL(1-14C) ornithine. Incubations are carried out in disposable centrifuge tubes with center well holders containing filter paper impregnated with sodium hydroxide to absorb ^14 CO2. The incubation mixture consisted of 90 μl of L-ornithine, 350 μl of ODC buffer, 100 μl of 14C-ornithine (1.32 nm, Sp. Act:4.4 pCi/pM) and 10 μl of test sample. After incubation at 37° C. for 45 minutes, 0.5 ml of 2M chilled citric acid (4° C.) is added and incubation is continue for an additional 30 minutes to insure complete absorption of ^14 CO2. The filter paper is removed from the center well holders and set in 1 ml of water in capped scintillation vials for at least 1 hour before adding RBI 3820 scintillation cocktail. Radioactivity is measured in a Tri Carb Scintillation Counter. Results are expressed as pmol of ^14 CO2 released in 30 minutes per milligram of protein based on the specific activity of DL-14C-ornithine. The results are expressed in Table 2 below as the % reduction in ODC activity as compared to the control, for the compounds of each of the preceding Examples: […]

[2] = 17.0 nM (as printed in Table 2)

SMILES | Sebaceous gland reduction (sebaceous gland) | ODC activity reduction ([1]; 1.7 nM (as printed in Table 2)) | ODC activity reduction [1, 2]
COc1ccc(C(=O)COC(=O)/C=C(C)/C=C/C=C(C)\C=C\C2=C(C)CCCC2(C)C)cc1 [Compound 2, 2-(9-cis-retinoyloxy)-4'-methoxyacetophenone] | +++ | ++ | +++
CC1=C(/C=C/C(C)=C/C=C/C(C)=C/C(=O)O)C(C)(C)CCC1 [all-trans-retinoic acid, reference compound] | +++ |  | +++
